Values of other authors, collected in US20110104257A1, “POLYMORPHISMS PREDICTIVE OF PLATINUM-COORDINATING COMPOUND-INDUCED OTOTOXICITY” (priority 2008, published 2011).
Read-outs that look alike come from different tables or passages of the source.

Experiments:
[1] = system: aminoglycoside ototoxicity; settings: Guinea pig; note: key: +, low efficacy; ++, moderate efficacy; +++, high efficacy
cisplatin ototoxicity [2] = system: cisplatin ototoxicity; design: key to the marks not given beside the values; settings: Hamster
cisplatin ototoxicity [3] = settings: Rat
[4] = system: aminoglycoside ototoxicity; design: key to the marks not given beside the values; settings: Gentamicin; Rat; note: key: +, low efficacy; ++, moderate efficacy; +++, high efficacy
cisplatin ototoxicity [5] = settings: species cell empty
[6] = system: aminoglycoside ototoxicity; design: key to the marks not given beside the values; settings: Gentamicin; Mouse; note: key: +, low efficacy; ++, moderate efficacy; +++, high efficacy
cisplatin ototoxicity [7] = system: cisplatin ototoxicity; design: key to the marks not given beside the values; settings: Chinchilla
[8] = mice
cisplatin ototoxicity [9] = system: cisplatin ototoxicity; design: key to the marks not given beside the values; settings: Guinea pig

For `O=C(O)CCCC[C@@H]1CCSS1` (racemic) [Lipoic acid], the “Efficacy of protective agent against aminoglycoside ototoxicity” value (shortened to “Efficacy of protective agent”) ([1]; Amikacin) is listed as “+++”.

For `c1ccc(-c2ccccn2)nc1` [2,2-DPD, 2,2′-dipyridyl], the “Efficacy of protective agent” value ([1]; Gentamicin) is listed as “++”.

For `NCC[C@H](O)C(=O)N[C@@H]1C[C@H](N)[C@@H](O[C@H]2O[C@H](CN)[C@@H](O)[C@H](O)[C@H]2O)[C@H](O)[C@H]1O[C@H]1O[C@H](CO)[C@@H](O)[C@H](N)[C@H]1O` [Amakacin preconditioning], the “Efficacy of protective agent” value ([1]; Amikacin) is listed as “++”.

For `NCCCNCCSP(=O)(O)O` [Amifostine], the “Degree of protection against cisplatin ototoxicity” value (“Degree of protection” below) (cisplatin ototoxicity [2]) is given as “+++”.

For `N=C(N)NN` [Aminoguanidine], the “Degree of protection” value (cisplatin ototoxicity [3]) is given as “++”.

In the case of `CSCC[C@H](NC(=O)[C@H](Cc1ccccc1)NC[C@@H](NC[C@@H](N)CS)C(C)C)C(=O)O` [B581], the “Efficacy of protective agent” value [4] is listed as “++”.

For `OC[C@H]1O[C@@H](n2cnc3c(NC4CCCC4)nc(Cl)nc32)[C@H](O)[C@@H]1O` [CCPA, 2-chloro-N-cyclopentyladenosine], the “Degree of protection” value (cisplatin ototoxicity [5]) is listed as “++”.

In the case of `CCSCc1ccc2c(c1)c1c3c(c4c5cc(CSCC)ccc5n5c4c1n2[C@H]1C[C@](O)(C(=O)OC)[C@]5(C)O1)CNC3=O` [CEP1347], the “Efficacy of protective agent” value ([1]; Gentamicin) is listed as “+”.

For `CSCC[C@@H](N)C(=O)O` [D-methionine], the “Efficacy of protective agent” value ([1]; Gentamicin) is listed as “++” and the “Degree of protection” value (cisplatin ototoxicity [3]) is listed as “+++”.

For `C=C(CC)C(=O)c1ccc(OCC(=O)O)c(Cl)c1Cl` [Ethacrynic acid], the “Efficacy of protective agent” value ([1]; Gentamicin) is listed as “+”.

For `COC(=O)[C@H](CCSC)NC(=O)c1ccc(NC[C@@H](N)CS)cc1-c1ccccc1` [FTI277], the “Efficacy of protective agent” value [4] is listed as “+++”.

For `Nc1nc2c(ncn2[C@@H]2O[C@H](COP(=O)(O)OP(O)(O)=S)[C@@H](O)[C@H]2O)c(=O)[nH]1` [GDP-βs], the “Efficacy of protective agent” value [4] is listed as “+++”.

For `[Cl-].[Cl-].[Mn+2].c1cc2nc(c1)CN[C@@H]1CCCC[C@H]1NCCN[C@@H]1CCCC[C@H]1NC2` [M40403], the “Efficacy of protective agent” value [6] is listed as “++” and the “Degree of protection” value (cisplatin ototoxicity [5]) is listed as 0.

In the case of `NS(=O)(=O)C#Cc1ccccc1` [Pifithrin], the “Degree of protection” value (cisplatin ototoxicity [5]) is listed as “++”.

In the case of `C[C@H](Cc1ccccc1)Nc1ncnc2c1ncn2[C@@H]1O[C@H](CO)[C@@H](O)[C@H]1O` [R-PIA], the “Degree of protection” value (cisplatin ototoxicity [7]) is given as “++”.

In the case of `C[S+](CC[C@H](N)C(=O)O)C[C@H]1O[C@@H](n2cnc3c(N)ncnc32)[C@H](O)[C@@H]1O` (stereo partly shown) [SAM, S-adenosyl methionine], the “toxicity as monitored by renal dysfunction (creatinine and BUN)” value [8] is given as “not toxic”.

In the case of `CC(S)C(=O)NCC(=O)O` (stereo not shown) [Tiopronin], the “Degree of protection” value (cisplatin ototoxicity [3]) is listed as “++”.

In the case of `Cc1c(C)c2c(c(C)c1O)CCC(C)(C(=O)O)O2` (stereo not shown) [Trolox], the “Degree of protection” value (cisplatin ototoxicity [9]) is listed as “++”.

In the case of `N.N.[Cl][Pt][Cl]` [cisplatin], the “severe, permanent, bilateral hearing loss, share of patients” value (adult patients) is given as 10-25%, the “severe, permanent, bilateral hearing loss, share of patients” value (children) is given as 41-61% and the “Permanent hearing loss, frequency” value (children less than 5 years old) is given as 48%. The “severe, permanent, bilateral hearing loss, share of patients” value (patients receiving high doses (>400 mg/m^2)) was 50% and the “Permanent hearing loss, share of patients” value (patients receiving standard doses of cisplatin) was 25%.

In the case of `Cc1c(C)c2c(c(C)c1O)CC[C@@](C)(CCC[C@H](C)CCC[C@H](C)CCCC(C)C)O2` [α-Tocopherol], the “Efficacy of protective agent” value ([1]; Gentamicin) is given as “+++”, the “Degree of protection” value (cisplatin ototoxicity [9]) is given as “++” and the “Degree of protection” value (cisplatin ototoxicity [3]) is given as “++”.

In the case of Glutathione ester, the “Degree of protection” value (cisplatin ototoxicity [3]) is given as “+”.

For Methylthiobenzoic acid, the “Degree of protection” value (cisplatin ototoxicity [3]) is given as “++”.

For SOD1: SOD1, protective agent, the “Efficacy of protective agent” value ([1]; Kanamycin + Ethacrynic acid) is listed as “++”.

In the case of Z-DEVD-fluoromethyl ketone, the “Degree of protection” value (cisplatin ototoxicity [9]) is given as “+++”.

For Z-LEKD-fluoromethyl ketone, the “Degree of protection” value (cisplatin ototoxicity [9]) is given as “+++”.

B1: SOD2: SOD2, protective agent (protein, UniProt P04179 25-222, looked up)
Superoxide dismutase [Mn], …: KHSLPDLPYDYGALEPHINAQIMQLHHSKHHAAYVNNLNVTEEKYQEALAKGDVTAQIALQPALKFNGGGHINHSIFWTNLSPNGGGEPKGELLEAIKRDFGSFDKFKEKLTAASVGVQGSGWGWLGFNKERGHLQIAACPNQDPLQGTTGLIPLLGIDVWEHAYYLQYKNVRPDYLKAIWNVINWENVTERYMACKK
In the case of B1, the “Efficacy of protective agent” value ([1]; Kanamycin + Ethacrynic acid) is given as “++”.
